The target in the experiment is T1, chicken gizzard smooth muscle myosin subfragment-1 chemically crosslinked to cardiac or skeletal actin (Gallus gallus, UniProt P10587).
T1 construct: chicken gizzard smooth muscle myosin subfragment-1; from tissue; host or cells: chicken gizzard
As to the kind of experiment: Smooth muscle myosin ATPase dose response assay (pyruvate kinase/horseradish peroxidase/pyruvate oxidase-coupled, amplex red fluorescence). As to conditions: read-out: IC50 Arithmetic Mean. It counts as biochemical. In outline: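 Readout is amplex red signal from coupled ATPase of actin-crosslinked gizzard myosin S1 (0.15 mM ATP, 12 mM K-PIPES, pH 7.00). IC50 is the half-maximal activity point of a four-parameter Hill fit.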

30 molecules from US7932270B2 (Cytokinetics, Inc., priority 2006, dated 2011) can be followed below.

T1 sequence (P02607 2-151): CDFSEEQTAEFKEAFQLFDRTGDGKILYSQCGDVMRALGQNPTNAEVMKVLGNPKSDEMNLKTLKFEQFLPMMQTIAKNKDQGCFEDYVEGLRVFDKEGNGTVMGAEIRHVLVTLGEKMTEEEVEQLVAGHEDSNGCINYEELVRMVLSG
T1 sequence (P10587 84-789): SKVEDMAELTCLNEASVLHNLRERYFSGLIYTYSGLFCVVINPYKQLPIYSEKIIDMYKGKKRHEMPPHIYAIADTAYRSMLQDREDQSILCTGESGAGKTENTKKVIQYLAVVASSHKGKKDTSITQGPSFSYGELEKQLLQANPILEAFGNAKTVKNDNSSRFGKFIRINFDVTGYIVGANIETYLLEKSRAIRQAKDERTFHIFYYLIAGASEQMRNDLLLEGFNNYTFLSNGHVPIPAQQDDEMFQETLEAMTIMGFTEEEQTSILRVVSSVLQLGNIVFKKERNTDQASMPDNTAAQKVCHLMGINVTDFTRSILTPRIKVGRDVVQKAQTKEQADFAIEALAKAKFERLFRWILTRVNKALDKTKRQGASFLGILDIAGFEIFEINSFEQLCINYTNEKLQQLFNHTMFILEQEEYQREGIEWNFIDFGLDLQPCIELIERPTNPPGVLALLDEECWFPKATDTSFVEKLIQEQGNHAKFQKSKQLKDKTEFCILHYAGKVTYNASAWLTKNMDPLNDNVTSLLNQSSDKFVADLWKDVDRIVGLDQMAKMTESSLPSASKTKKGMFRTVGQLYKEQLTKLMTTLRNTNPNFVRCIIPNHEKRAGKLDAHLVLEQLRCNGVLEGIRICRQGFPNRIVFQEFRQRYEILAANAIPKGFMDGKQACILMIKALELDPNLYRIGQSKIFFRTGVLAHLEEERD

In the case of `COC(=O)N1CC[C@@H]1CNC(=O)c1ccc(-c2cn[nH]c2)nc1NCCc1cccc(F)c1` [methyl (2R)-2-{[(2-{[2-(3-fluorophenyl)ethyl]amino}-6-pyrazol-4-yl(3-pyridyl))carbonylamino]methyl}azetidinecarboxylate], the IC50 (commonly the concentration needed to halve the response being measured) stood at 0.245 µM.
With `CC[C@H](CNC(=O)c1cc(F)c(-c2cnn(C)c2)nc1NCCc1cccc(F)c1)C(=O)OC` [methyl (2R)-2-{[(5-fluoro-2-{[2-(3-fluorophenyl)ethyl]amino}-6-(1-methylpyrazol-4-yl)(3-pyridyl))carbonylamino]methyl}butanoate], the 50% inhibitory concentration (IC50) stood at 0.117 µM.
As for `CC[C@H](CNC(=O)c1cc(F)c(-c2cn[nH]c2)nc1NCCc1cccc(F)c1)C(=O)OC` [methyl (2R)-2-{[(5-fluoro-2-{[2-(3-fluorophenyl)ethyl]amino}-6-pyrazol-4-yl(3-pyridyl))carbonylamino]methyl}butanoate], the figure is 0.117 µM; as for `COC(=O)N1CC[C@@H]1CNC(=O)c1ccc(-c2ccccc2C#N)nc1NCCc1cccc(F)c1` [methyl (2R)-2-{[(6-(2-cyanophenyl)-2-{[2-(3-fluorophenyl)ethyl]amino}(3-pyridyl))carbonylamino]methyl}azetidinecarboxylate], 0.073 µM.
For the molecule `COC(=O)N1CCNC[C@@H]1CNC(=O)c1ccc(-c2ccccc2C#N)nc1NCCc1cccc(F)c1` [methyl (2R)-2-{[(6-(2-cyanophenyl)-2-{[2-(3-fluorophenyl)ethyl]amino}(3-pyridyl))carbonylamino]methyl}piperazinecarboxylate], the IC50 is 11.6 µM.
Take `COC(=O)N1CCCC[C@@H]1CNC(=O)c1ccc(-c2ccccc2C#N)nc1NCCc1cccc(F)c1` [methyl (2R)-2-{[(6-(2-cyanophenyl)-2-{[2-(3-fluorophenyl)ethyl]amino}(3-pyridyl))carbonylamino]methyl}piperidinecarboxylate]: the IC50 was found to be 4.28 µM.
In the case of `COC(=O)N1CCC[C@@H]1CNC(=O)c1ccc(-c2ccccc2C#N)nc1NCCc1cccc(F)c1` [methyl (2R)-2-{[(6-(2-cyanophenyl)-2-{[2-(3-fluorophenyl)ethyl]amino}(3-pyridyl))carbonylamino]methyl}pyrrolidinecarboxylate], the IC50 was found to be 0.101 µM.
Regarding `COC(=O)[C@H](C)CNC(=O)c1cc(F)c(-c2cnn(C)c2)nc1NCCc1cccc(F)c1` [methyl (2R)-3-[(5-fluoro-2-{[2-(3-fluorophenyl)ethyl]amino}-6-(1-methylpyrazol-4-yl)(3-pyridyl))carbonylamino]-2-methylpropanoate], the IC50 turned out to be 0.1 µM.
As to `COC(=O)[C@H](C)CNC(=O)c1cc(F)c(-c2cn[nH]c2)nc1NCCc1cccc(F)c1` [methyl (2R)-3-[(5-fluoro-2-{[2-(3-fluorophenyl)ethyl]amino}-6-pyrazol-4-yl(3-pyridyl))carbonylamino]-2-methylpropanoate], the IC50 came out at 0.073 µM.
For the molecule `COC(=O)[C@H](C)CNC(=O)c1ccc(-c2ccccc2C#N)nc1NCCc1cccc(F)c1` [methyl (2R)-3-[(6-(2-cyanophenyl)-2-{[2-(3-fluorophenyl)ethyl]amino}(3-pyridyl))carbonylamino]-2-methylpropanoate], the IC50 was found to be 0.186 µM.
Consider `COC(=O)[C@@H](CN)NC(=O)c1ccc(-c2ccccc2C#N)nc1NCCc1cccc(F)c1` [methyl (2R)-3-amino-2-[(6-(2-cyanophenyl)-2-{[2-(3-fluorophenyl)ethyl]amino}(3-pyridyl))carbonylamino]propanoate], for which the IC50 was 2.38 µM.
As for `COC(=O)[C@H](C)CNC(=O)c1cc(F)c(-c2cnn(C)c2)nc1N` [methyl (2R)-3-{[2-amino-5-fluoro-6-(1-methylpyrazol-4-yl)(3-pyridyl)]carbonylamino}-2-methylpropanoate], the figure is 86 µM.
As for `COC(=O)[C@H](CNC(=O)c1ccc(-c2ccccc2C#N)nc1NCCc1cccc(F)c1)NC(C)=O` [methyl (2S)-2-(acetylamino)-3-[(6-(2-cyanophenyl)-2-{[2-(3-fluorophenyl)ethyl]amino}(3-pyridyl))carbonylamino]propanoate], the figure is 1.64 µM.
As for `COC(=O)[C@H](CO)NC(=O)c1ccc(-c2ccccc2C#N)nc1NCCc1cccc(F)c1` [methyl (2S)-2-[(6-(2-cyanophenyl)-2-{[2-(3-fluorophenyl)ethyl]amino}(3-pyridyl))carbonylamino]-3-hydroxypropanoate], the IC50 amounted to 4.18 µM.
As for `COC(=O)[C@H](C)NC(=O)c1ccc(-c2ccccc2C#N)nc1NCCc1cccc(F)c1` [methyl (2S)-2-[(6-(2-cyanophenyl)-2-{[2-(3-fluorophenyl)ethyl]amino}(3-pyridyl))carbonylamino]propanoate], the half-maximal inhibitory concentration (IC50) was 6.98 µM.
For the molecule `COC(=O)[C@@H](N)CNC(=O)c1ccc(-c2ccccc2C#N)nc1NCCc1cccc(F)c1` [methyl (2S)-2-amino-3-[(6-(2-cyanophenyl)-2-{[2-(3-fluorophenyl)ethyl]amino}(3-pyridyl))carbonylamino]propanoate], the concentration for half-maximal inhibition (IC50) came to 0.619 µM.
For the molecule `COC(=O)N1CCN(C)C[C@@H]1CNC(=O)c1ccc(-c2ccccc2C#N)nc1NCCc1cccc(F)c1` [methyl (2S)-2-{[(6-(2-cyanophenyl)-2-{[2-(3-fluorophenyl)ethyl]amino}(3-pyridyl))carbonylamino]methyl}-4-methylpiperazinecarboxylate], the concentration for half-maximal inhibition (IC50) was determined as 10.1 µM.
On to `COC(=O)[C@@H](C)CNC(=O)c1cc(F)c(-c2cnn(C)c2)nc1NCCc1cccc(F)c1` [methyl (2S)-3-[(5-fluoro-2-{[2-(3-fluorophenyl)ethyl]amino}-6-(1-methylpyrazol-4-yl)(3-pyridyl))carbonylamino]-2-methylpropanoate], for which the IC50 is 0.141 µM.
For the molecule `COC(=O)[C@H](CN)NC(=O)c1ccc(-c2ccccc2C#N)nc1NCCc1cccc(F)c1` [methyl (2S)-3-amino-2-[(6-(2-cyanophenyl)-2-{[2-(3-fluorophenyl)ethyl]amino}(3-pyridyl))carbonylamino]propanoate], the IC50 was found to be 2.32 µM.
Take `COC(=O)N1CCC[C@H](CNC(=O)c2ccc(-c3ccccc3C#N)nc2NCCc2cccc(F)c2)C1` [methyl (3R)-3-{[(6-(2-cyanophenyl)-2-{[2-(3-fluorophenyl)ethyl]amino}(3-pyridyl))carbonylamino]methyl}piperidinecarboxylate]: the concentration for half-maximal inhibition (IC50) came to 0.718 µM.
In the case of `CC(C)(C)OC(=O)N1CCOC(CNC(=O)c2ccc(-c3ccccc3)nc2NCCc2ccccn2)C1` (stereo not drawn) [tert-butyl 2-[({6-phenyl-2-[(2-(2-pyridyl)ethyl)amino]-3-pyridyl}carbonylamino)methyl]morpholine-4-carboxylate], the concentration for half-maximal inhibition (IC50) was determined as 65.1 µM.
For `Cc1cc(C(=O)NC[C@H]2CCCN2C(=O)OC(C)(C)C)c(NCCc2cccc(F)c2)nc1-c1cnn(C)c1` [tert-butyl (2R)-2-{[(2-{[2-(3-fluorophenyl)ethyl]amino}-5-methyl-6-(1-methylpyrazol-4-yl)(3-pyridyl))carbonylamino]methyl}pyrrolidinecarboxylate], the IC50 was determined as 3.7 µM.
With `Cn1cc(-c2ccc(C(=O)NC[C@H]3CCCN3C(=O)OC(C)(C)C)c(NCCc3cccc(F)c3)n2)cn1` [tert-butyl (2R)-2-{[(2-{[2-(3-fluorophenyl)ethyl]amino}-6-(1-methylpyrazol-4-yl)(3-pyridyl))carbonylamino]methyl}pyrrolidinecarboxylate], the IC50 came out at 4.64 µM.
On to `CC(C)(C)OC(=O)N1CC[C@@H]1CNC(=O)c1ccc(-c2cn[nH]c2)nc1NCCc1cccc(F)c1` [tert-butyl (2R)-2-{[(2-{[2-(3-fluorophenyl)ethyl]amino}-6-pyrazol-4-yl(3-pyridyl))carbonylamino]methyl}azetidinecarboxylate], for which the IC50 is 0.525 µM.
Take `CC(C)(C)OC(=O)N1CCC[C@@H]1CNC(=O)c1ccc(-c2cn[nH]c2)nc1NCCc1cccc(F)c1` [tert-butyl (2R)-2-{[(2-{[2-(3-fluorophenyl)ethyl]amino}-6-pyrazol-4-yl(3-pyridyl))carbonylamino]methyl}pyrrolidinecarboxylate]: the IC50 came to 3.17 µM.
Take `Cn1cc(-c2nc(NCCc3cccc(F)c3)c(C(=O)NC[C@H]3CCCN3C(=O)OC(C)(C)C)cc2Cl)cn1` [tert-butyl (2R)-2-{[(5-chloro-2-{[2-(3-fluorophenyl)ethyl]amino}-6-(1-methylpyrazol-4-yl)(3-pyridyl))carbonylamino]methyl}pyrrolidinecarboxylate]: the IC50 is 1.6 µM.
Regarding `Cn1cc(-c2nc(NCCc3cccc(F)c3)c(C(=O)NC[C@H]3CCCN3C(=O)OC(C)(C)C)cc2C#N)cn1` [tert-butyl (2R)-2-{[(5-cyano-2-{[2-(3-fluorophenyl)ethyl]amino}-6-(1-methylpyrazol-4-yl)(3-pyridyl))carbonylamino]methyl}pyrrolidinecarboxylate], the IC50 worked out at 2.52 µM.
On to `CC(C)(C)OC(=O)N1CCC[C@@H]1CNC(=O)c1cc(C#N)c(-c2cn[nH]c2)nc1NCCc1cccc(F)c1` [tert-butyl (2R)-2-{[(5-cyano-2-{[2-(3-fluorophenyl)ethyl]amino}-6-pyrazol-4-yl(3-pyridyl))carbonylamino]methyl}pyrrolidinecarboxylate], for which the IC50 stood at 6.41 µM.
`Cn1cc(-c2nc(NCCc3cccc(F)c3)c(C(=O)NC[C@H]3CCN3C(=O)OC(C)(C)C)cc2F)cn1` [tert-butyl (2R)-2-{[(5-fluoro-2-{[2-(3-fluorophenyl)ethyl]amino}-6-(1-methylpyrazol-4-yl)(3-pyridyl))carbonylamino]methyl}azetidinecarboxylate]: the IC50 was determined as 0.525 µM.
`Cn1cc(-c2nc(NCCc3cccc(F)c3)c(C(=O)NC[C@H]3CCCN3C(=O)OC(C)(C)C)cc2F)cn1` [tert-butyl (2R)-2-{[(5-fluoro-2-{[2-(3-fluorophenyl)ethyl]amino}-6-(1-methylpyrazol-4-yl)(3-pyridyl))carbonylamino]methyl}pyrrolidinecarboxylate]: the IC50 was found to be 1.46 µM.
